Test results reported in patent US11155616B2, “Drug regulated transgene expression” (Seattle Children's Hospital, priority 2014, dated 2021).

How the values were obtained:
TamR-tf (HEA3) [1] = assay: ZsGreen expression by flow cytometry in Jurkat cells transduced with dual packaged TamR ZsGreen lentivirus (constructs A and B); assay type: cell-based, human; conditions: 500 nM 4OHT for 24 hours, flow cytometry (FIG. 1)
Text: An alternative of the TamR-LV system allows for constitutive HEA3 expression and inducible expression of either ZsGreen or chimeric antigen receptors, permitting kinetic analysis and biological effect controlled in an “ON” and “OFF” manner by the presence or absence of tamoxifen. For this, two constructs were used: 1) HEA-3 is driven by the human EF1 a promoter and linked to the constructed truncated EGFR (EGFRt) transmembrane marker protein by a T2A skip-linker sequence and cloned into a third generation epHIV7 self-inactivating lentivirus packaging plasmid (construct A). (See FIGS. 9A, 9B and 9C; SEQ ID NO: 39; Table 1: SEQ ID NO: 8 and SEQ ID NO: 9) and 2) 7xHBD/[…] controls tamoxifen-dependent expression of ZsGreen cloned into pcDNA3.1(−) which was engineered to lack the commercially used CMV promoter (construct B) (See Table 12; SEQ ID NO: 41). ZsGreen1 is a human codon-optimized ZsGreen variant that encodes the brightest commercially available green fluorescent protein. (Available from Clontech).
Jurkat cells were transduced at a MOI of 5 with lentivirus packaging constructs described above in which a dual packaging approach in which each plasmid is co-transfected into 293T cells during lentiviral production. […]

TamR-tf (HEA3) [2] = assay: 4OHT dose response of ZsGreen expression in transduced Jurkat cells; assay type: cell-based, human; conditions: 4OHT 0 nM-1000 nM, flow cytometry (FIG. 2)
Text: (§1) Jurkat cells were transduced at a MOI of 5 with lentivirus packaging constructs described above in which a dual packaging approach in which each plasmid is co-transfected into 293T cells during lentiviral production. This construct utilized molar ratio of 1:2 of construct A to construct B. Construct A encodes the chimeric transcription factor HEA3 linked via a ribosomal cleavage sequence, T2A, to the tracking and selection marker EGFRt. Construct B encodes the synthetic, HEA3-responsive promoter, 7xHBD/mE1b which regulates expression of the transgene ZsGreen-DR1, a short half-life green fluorescent reporter gene.
Cells were harvested and were then subjected to treatment with 4OHT with concentrations ranging from 0 nM-1000 nM, as indicated. Samples were harvested, washed, and stained with EGFRt-biotin, followed by strepavidin-APC, and then analyzed by flow cytometry for ZsGreen expression.

TamR-tf (HEA3) [3] = assay: On and off rate kinetics of ZsGreen expression in transduced Jurkat cells (4OHT washout and re-stimulation); assay type: cell-based, human
Text: as §1
The population was subjected to 500 nM 4OHT stimulation for 48 hours, and then sorted for ZsGreen+cells utilizing FACS, yielding a >99% ZsGreen+population on immediate post-sort analysis. Cells were subsequently expanded in culture for 3 weeks, and then prepared for kinetic studies. Cells were divided into 3 treatment groups: (1) no 4OHT (2) 200 nM 4OHT (added every 48 hours) (3) 24 hour 200 nM 4OHT, followed by washout 1× in PBS, then culture in 4OHT free media for 14 days, followed by a 24 hour re-stimulation with 200 nm 4OHT, and then washout in 1×PBS. At each time point, samples were harvested and analyzed via flow cytometry for ZsGreen expression. Results are shown in FIG. 3 and are presented as % ZsGreen+.

TamR-tf (HEA3) [4] = assay: ZsGreen expression in primary CD4 central memory cells transduced with constructs A and B; assay type: cell-based, human; conditions: inducer plus antiCD3/anti-CD28 beads (FIG. 4B)
Protocol: CD4 central memory cells were obtained from peripheral blood by selecting cells through flow cytometry for markers CD4, and CD62L and negative for CD45RO. Cells were cultured with anti-CD3/anti-CD28 beads for 3 days.
as §1, with “After 3 days, CD4 or CD8 central memory” for “Jurkat”
(§2) On day 21 after transduction, cells were enriched for EGFRt, and subsequently expanded with feeder cells, IL2, and IL15. Following expansion, cells were divided into 3 treatment groups, 4OHT alone (A), 4OHT combined with CD3/CD28 bead cotreatment (B) or 4OHT alone for 48 hours, followed by addition of CD3/CD28 beads (C). […] All samples were harvested at indicated time points following 4OHT treatment, stained with EGFRt-biotin antibody, followed by SA-APC, and analyzed for flow cytometry. […]

TamR-tf (HEA3) [5] = assay: ZsGreen expression in primary CD8 central memory cells transduced with constructs A and B; assay type: cell-based, human; conditions: inducer plus antiCD3/anti-CD28 beads (FIG. 5B)
Protocol: CD8 central memory cells were obtained from peripheral blood by selecting cells through flow cytometry for markers CD8, and CD62L and negative for CD45RO. Cells were cultured with anti-CD3/anti-CD28 beads for 3 days.
as §1, with “After 3 days, CD4 or CD8 central memory” for “Jurkat”
as §2

TamR-tf (HEA3) [6] = assay: Inducible CD19CAR/Her2t expression in Jurkat cells transduced with TamR-CD19CAR LV (flow cytometry and western blot); assay type: cell-based, human; conditions: construct not including DHFRdm, 500 nM 4OHT (FIG. 6)
Text: Construction of the vector was accomplished by dual packaging of transfer plasmids housing constructs as described above at a plasmid molar ratio of 1:1. (See FIGS. 6C and 7C) Construct A under the constitutive EF-lalpha promoter encodes TamR-tf (HEA3) linked via a ribosomal cleavage sequence, T2A, to the tracking and selection marker EGFRt. (See FIGS. 9A, 9B and 9C; SEQ ID NO: 39, Table 1: SEQ ID NO: 8 and SEQ ID NO: 9) Construct B contains the 7xHBD/mE1b promoter with downstream transgene cDNA including CD19CAR linked via 2a cleavage sequence to Her2t, a tracking and selection marker. (See Table 12; SEQ ID NO: 41; Table 2 SEQ ID NO: 10; FIG. 11; SEQ ID NO: 44). Another construct was prepared adding an additional selective marker DHFRdm (See FIG. 12; SEQ ID NO: 46).
Human Jurkat cells were transduced at a MOI of 2, then were expanded in culture, and selected for EGFRt+ cells via magnetic bead selection. After further expansion, cells were either treated with vehicle alone (EtOH) or 500 nM 4OHT, and harvested for flow cytometry. Samples were stained with EGFRt-APC antibody and Herceptin-biotin, followed by SA PE. Samples were also prepared for western blot, the primary antibody used is an anti-CD247 mouse mAb which recognizes the intracellular CD3 zeta chain on the CD19CAR (˜48 kDa). The endogenous CD3 zeta migrates at ˜23 kDa.

TamR-tf (HEA3) [7] = assay: Inducible CD19CAR/Her2t expression in Jurkat cells transduced with TamR CD19CAR LV containing DHFRdm (flow cytometry and western blot); assay type: cell-based, human; conditions: construct including DHFRdm, 500 nM 4OHT (FIG. 7)
Protocol: Construction of TamR CD19CAR LV was done through dual packaging of constructs A and B. Construct A contains HEA3 linked via a ribosomal cleavage sequence, T2A, to the tracking and selection marker EGFRt.
Cells were transduced with TamR CD19CAR LV at a MOI of 1, expanded in culture, selected for EGFRt via magnetic bead selection. Following further expansion cells were treated with […] alone (EtOH) or 500 nM 4OHT, and harvested for flow cytometry, (upper panel). FIG. 7. Samples were stained with EGFRt-APC antibody and Herceptin-biotin, followed by SA-PE. Parental (untransduced Jurkat) is shown for comparison. Samples were also prepared for western blot, the primary antibody used is an anti-CD247 mouse mAb which recognizes the intracellular CD3 zeta chain on the CD19CAR (˜48 kDa). The endogenous CD3 zeta migrates at ˜23 kDa.

TamR-tf (HEA3) [8] = assay: Inducible Her2t expression in human CD4 central memory T cells transduced with TamR CD19CAR LV (with DHFRdm); assay type: cell-based; conditions: 500 nM 4OHT for 24 hours plus antiCD3/antiCD28 beads (FIG. 8)
Protocol: CD4 central memory cells were obtained from peripheral blood by selecting cells through flow cytometry for markers CD4, and CD62L and negative for CD45RO. Cells were cultured anti-CD3/anti-CD28 beads for 3 days. After 3 days, CD4 Central memory cells were transduced at a MOI of 5 with a lentivirus which packages constructs A and B. (FIG. 8B). Construct A encodes the chimeric transcription factor HEA3 linked via a ribosomal cleavage sequence, T2A, to the tracking and selection marker EGFRt. (See FIGS. 9A, 9B and 9C; SEQ ID NO: 39; Table 1; SEQ ID NO: 8 and SEQ ID NO: 9). […] (See Table 12; SEQ ID NO: 41; Table 2 SEQ ID NO: 10; FIG. 11; SEQ ID NO: 44; FIG. 12; SEQ ID NO: 46).
On day 21 after transduction, cells were enriched for EGFRt utilizing magnetic bead selection, and subsequently expanded with irradiated feeder cells, IL2, and IL15. Two weeks after expansion, cells were cryopreserved. In the experiment depicted above, CD4+ CEM cells which were mock transduced, or CD4+TamR CD19CAR LV were thawed, placed in culture with CD3/CD28 beads, IL-2, IL-15. CD4+TamRCD19CAR LV were treated or not with 500 nM 4OHT for 24 hours. All samples were harvested washed, then stained with an EGFRt-APC antibody and Her2t-biotin, followed by SA-PE, and analyzed via flow cytometry.

Row | Structure (SMILES) | cells expressing ZsGreen (TamR-tf (HEA3) [1]) | concentration effective to induce expression of the transgene (ZsGreen) (TamR-tf (HEA3) [2]) | ZsGreen expression after 4-OHT washout, % of the max ZsGreen activity (TamR-tf (HEA3) [3]; 200 nM 4OHT then washout, within 5 days (FIG. 3)) | ZsGreen activity after 4-OHT is added back, % max activity (TamR-tf (HEA3) [3]; re-stimulation with 200 nM 4OHT, within 2 days (FIG. 3)) | primary transduced CD4 cells expressing ZsGreen (TamR-tf (HEA3) [4]) | primary transduced CD8 cells expressing ZsGreen (TamR-tf (HEA3) [5]) | cells expressing both EGFRt and Her2t (TamR-tf (HEA3) [6]) | cells expressing both EGFRt and Her2t (TamR-tf (HEA3) [7]) | primary cells expressing both EGFRt and Her2t (TamR-tf (HEA3) [8])
1 | CC/C(=C(\c1ccc(O)cc1)c1ccc(OCCN(C)C)cc1)c1ccccc1 [4-OHT, 4-hydroxytamoxifen] | about 50% | ≥ 200 nM | less than 10% | about 100% | – | – | – | – | –
2 | CC/C(=C(\c1ccccc1)c1ccc(OCCN(C)C)cc1)c1ccccc1 [tamoxifen, 2-(4-((1Z)-1,2-diphenyl-1-butenyl)phenoxy)-N,N-dimethyl-ethanamine] | – | – | – | – | About 70% | About 37% | about 42.6% | about 7.5% | about 14.7%
